Article PMC4373884, “Crystal Structures of the Kinase Domain of the Sulfate-Activating Complex in Mycobacterium tuberculosis” (PLoS ONE, 2015)

Tests used:
[1] = molecular target: T1, CysC (APS kinase domain of CysN) (Mycobacterium tuberculosis, UniProt P9WNM5)
T1 construct: gene cysNC

[2] = molecular target: T1, CysC (APS kinase domain of CysN); remark: listed apart in the source

T1 sequence (P9WNM5 424-612): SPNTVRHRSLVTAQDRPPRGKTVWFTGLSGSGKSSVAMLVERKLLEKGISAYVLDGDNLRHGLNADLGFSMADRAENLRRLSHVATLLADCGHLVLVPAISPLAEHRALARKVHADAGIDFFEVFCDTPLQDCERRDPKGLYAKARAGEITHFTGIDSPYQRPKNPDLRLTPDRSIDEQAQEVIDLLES

Structure (SMILES) | X-ray crystal structure [1] | ADP-Glo luminescence kinase assay [2]
Nc1ncnc2c1ncn2[C@@H]1O[C@H](COP(=O)(O)OP(=O)(O)O)[C@@H](O)[C@H]1O [ADP] | The electron density maps clearly show the presence of one molecule of ADP per subunit | –
Nc1ncnc2c1ncn2[C@@H]1O[C@H](COP(=O)(O)OP(=O)(O)NP(=O)(O)O)[C@@H](O)[C@H]1O [AMP-PNP] | The bound ligands AMP-PNP and APS are well defined in electron density | –
Nc1ncnc2c1ncn2[C@@H]1O[C@H](COP(=O)(O)OP(=O)(O)OP(=O)(O)O)[C@@H](O)[C@H]1O [ATP] | – | The CysC domain used in this study is catalytically active and shows APS kinase activity
